From paper PMC7179312 (Antimicrobial Agents and Chemotherapy, 2020)

How the values were obtained:
[1] = target: T1, KPC-2 D179Y (Klebsiella pneumoniae, UniProt Q9F663, D178Y); settings: D179Y substitution in KPC-2; cited from earlier work
T1 construct: 6xHis (C); made in house; host or cells: E. coli BL21(DE3) pLys, pET28a

[2] = test system: P. aeruginosa PAM1154 carrying pUCP24 vector (PAM4175); test: MIC, CLSI broth microdilution; assay type: cell-based; settings: Pseudomonas aeruginosa, drug alone
Excerpt: The effects of KPC mutations on resistance to various antibiotics were investigated. For these studies, pUCP24 plasmids carrying wild-type and mutant blaKPC-2 genes as well as the pUCP24 vector were transformed into PAM1154, an efflux-deficient strain of Pseudomonas aeruginosa. In this host, the effect of β-lactamases on β-lactam MIC is amplified due to the slowed uptake of β-lactams across the low-permeability outer membrane without interference by efflux of either β-lactams or BLIs. Consequently, this host allows detection of β-lactamase activity (as an MIC increase) of low-catalytic-efficiency enzymes that rely heavily on the low permeability of the outer membrane. Using the strain that lacks efflux pumps ensures no interference from efflux in interpreting results. We next evaluated the steady-state protein expression levels in bacterial cells. […] The observed discrepancy with our results could be attributed to the difference in either the expression vector or host bacteria.
(§1) For microbiological studies, wild-type blaKPC-2 and its mutant variants were cloned into the shuttle vector pUCP24. Resulting plasmids were transformed in the efflux-deficient strain of P. aeruginosa PAM1154 using selection on 15 μg/ml of gentamicin. Using a strain of P. aeruginosa as opposed to E. coli as a host for various cloned genes was based on the following consideration. As well documented elsewhere ([41]), P. aeruginosa has a low-permeability outer membrane; consequently, the effect of β-lactamases on MIC is amplified in P. aeruginosa compared to that in E. coli due to the slowed uptake of β-lactams. Thus, this host is appropriate to detect β-lactamase activity (as an MIC increase) of low-catalytic-efficiency enzymes that rely heavily on low permeability of the outer membrane. […] MICs were determined using the Clinical and Laboratory Standards Institute (CLSI) broth microdilution method as described in CLSI document M07-A11 ([42]). Potentiation of antibiotic activity by various BLIs in bacterial strains carrying wild-type (WT) and mutant KPC-2 genes was performed using standard checkerboard methodology ([43]). BLI potency was defined as PV50 (PV, potentiation value). PV50 is the minimal concentration of a BLI that is required to reduce the antibiotic MIC to the middle of the MIC range (E50) where the highest MIC is the MIC for a KPC-producing strain with no inhibitor added and the lowest MIC is the MIC for the vector-only strain, corresponding to the complete inhibition of KPC. E50 is calculated as the square root of the product of the antibiotic MICs for the KPC-producing and the vector-only strains.

[3] = test system: P. aeruginosa PAM1154 carrying KPC-2::L169P (PAM4751); test: Checkerboard potentiation of antibiotic activity by BLIs; assay type: cell-based, Pseudomonas aeruginosa; settings: for PV50: PAM4751 KPC-2::L169P
Excerpt: (§2) BLI potency was defined as PV50 (PV, potentiation value) of antibiotic potentiation. PV50 is the concentration of a BLI that is required to reduce the antibiotic MIC to the middle of the MIC range where the highest MIC is the MIC for a KPC-producing strain with no inhibitor added and the lowest MIC is the MIC for the vector-alone strain, which corresponds to complete inhibition of KPC. As a given MIC is directly related to the β-lactamase activity, PV50 might be considered the concentration of a BLI that is required to achieve half-effect of inhibition of β-lactamase activity (in whole cells) to hydrolyze an antibiotic of interest. […] However, the accurate determination of PV50 requires the MIC range to be relatively wide.
as §1, with “Potentiation of antibiotic activity by various BLIs in bacterial strains carrying wild-type (WT) and mutant KPC-2 genes was performed using standard checkerboard methodology ([43]).” left out
(§3) […]
(§4) […]

[4] = test system: P. aeruginosa PAM1154 carrying KPC-2::D179Y (PAM4639); test: as above; assay type: cell-based, Pseudomonas aeruginosa; settings: for increase of PV50 vs wild-type KPC-2: D179Y; for PV50: PAM4639 KPC-2::D179Y
Excerpt: as §2
as §1, with “Potentiation of antibiotic activity by various BLIs in bacterial strains carrying wild-type (WT) and mutant KPC-2 genes was performed using standard checkerboard methodology ([43]).” left out
as §3, §4

[5] = test system: P. aeruginosa PAM1154 carrying wild-type KPC-2 (PAM4135); test: as above; assay type: cell-based, Pseudomonas aeruginosa; settings: PAM4135 KPC-2
Excerpt: as §2
as §1, with “Potentiation of antibiotic activity by various BLIs in bacterial strains carrying wild-type (WT) and mutant KPC-2 genes was performed using standard checkerboard methodology ([43]).” left out
as §3, §4

[6] = target: T2, KPC-2 (Klebsiella pneumoniae, UniProt Q9F663); test: Inactivation kinetics (k2/K, k−2, Kd), nitrocefin reporter substrate method; assay type: biochemical; settings: NCF hydrolysis, 37°C
T2 construct: 6xHis (C); made in house; host or cells: E. coli BL21(DE3) pLys, pET28a
Description: Inactivation kinetic parameters were determined by reporter substrate method for the slow tight binding inhibitor kinetic scheme ([45]). Protein was quickly mixed with 100 μM nitrocefin and various concentrations of BLI in reaction buffer, and absorbance at 490 nm was measured immediately every 2 s for 600 s on a SpectraMax plate reader (Molecular Devices, San Jose, CA) at 37°C. Resulting progression curves of OD490 versus time at various BLI concentrations were imported into Prism software (GraphPad, San Diego, CA), and pseudo-first-order rate constants (kobs) were calculated using the following equation: P=Vs×(1-e^-kobs^×^t)/kobs where Vs is enzyme nitrocefin cleavage rate in the absence of BLI. kobs values calculated at various vaborbactam concentrations were fitted in the following equation: kobs=k−2+k2/K×[I]/{1+[NCF]/Km(NCF)} where k2/K is the inactivation constant, [I] is inhibitor concentration, [NCF] is nitrocefin concentration, and Km(NCF) is the Michaelis constant of nitrocefin for KPC-2.

T1 sequence (Q9F663 25-293 D178Y): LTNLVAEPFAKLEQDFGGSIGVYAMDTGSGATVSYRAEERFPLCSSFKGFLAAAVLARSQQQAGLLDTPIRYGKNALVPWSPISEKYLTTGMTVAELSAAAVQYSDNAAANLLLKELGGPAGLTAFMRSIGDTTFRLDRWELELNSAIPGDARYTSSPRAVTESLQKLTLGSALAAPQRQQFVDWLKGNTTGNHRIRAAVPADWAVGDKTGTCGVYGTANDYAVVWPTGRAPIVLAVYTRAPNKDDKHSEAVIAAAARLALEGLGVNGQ
T2 sequence (Q9F663 25-293 limits assumed): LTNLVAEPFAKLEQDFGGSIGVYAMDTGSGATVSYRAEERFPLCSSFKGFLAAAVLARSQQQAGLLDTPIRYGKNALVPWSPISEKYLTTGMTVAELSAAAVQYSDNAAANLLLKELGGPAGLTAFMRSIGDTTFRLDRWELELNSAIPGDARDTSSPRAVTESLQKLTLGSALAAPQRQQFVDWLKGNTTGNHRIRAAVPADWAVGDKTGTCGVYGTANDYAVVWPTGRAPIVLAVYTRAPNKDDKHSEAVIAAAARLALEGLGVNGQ

NC(=O)[C@@H]1CC[C@@H]2CN1C(=O)N2OS(=O)(=O)O [Avibactam, avibactam]
decrease in the inactivation constant k2/K [1]: 70,000 fold | MIC [2]: 128 µg/mL | increase of PV50 vs wild-type KPC-2 ([3]; L169P, cefepime): 4 fold | PV50 ([3]; potentiation of cefepime): 1 µg/mL | PV50 ([3]; potentiation of ceftazidime): 2 µg/mL | PV50 ([3]; potentiation of piperacillin): 2 µg/mL | increase of PV50 vs wild-type KPC-2 ([4]; cefepime): 16 fold | increase of PV50 vs wild-type KPC-2 ([4]; ceftazidime): 32 fold | increase of PV50 vs wild-type KPC-2 ([4]; piperacillin): 4 fold | PV50 ([4]; potentiation of cefepime): 4 µg/mL | PV50 ([4]; potentiation of ceftazidime): 4 µg/mL | PV50 ([4]; potentiation of piperacillin): 1 µg/mL | PV50 ([5]; potentiation of cefepime): 0.25 µg/mL | PV50 ([5]; potentiation of ceftazidime): 0.125 µg/mL | k−2 [6]: 3.3 ± 0.1 × 10^−4 s^−1
